In the supplement of paper PMC10307832:

Legend:
Assay in all cases: relative viability (nuclei count vs DMSO), 5 days (fraction); higher = more cells survive
[1] = system: NCI-H1755
Procedure, shortened: (§1)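 A single step with final 0.05% Triton X-100, 1% formaldehyde and 1 ug/ml Hoechst fixed the cells and stained nuclei 5 days after treatment. Lung cancer cell lines in 1536-well plates had been treated by pin tool the day after seeding with one drug alone or a fixed anchor-drug dose plus five library-drug doses (not always all listed) in √10 steps, and nuclei were counted on 4× images. Relative viability is the ratio of nuclei in treated wells to nuclei in vehicle wells, taken as the median of duplicate plates.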

[2] = system: PC-14
Procedure, shortened: as §1

[3] = system: SK-MES-1
Procedure, shortened: as §1

[4] = system: NCI-H661
Procedure, shortened: as §1

[5] = system: NCI-H441
Procedure, shortened: as §1

[6] = system: NCI-H1792
Procedure, shortened: as §1

[7] = system: NCI-H596
Procedure, shortened: as §1

[8] = system: LXF-289
Procedure, shortened: as §1

[9] = system: NCI-H1915
Procedure, shortened: as §1

[10] = system: NCI-H322M
Procedure, shortened: as §1

[11] = system: NCI-H460
Procedure, shortened: as §1

[12] = system: NCI-H1651
Procedure, shortened: as §1

[13] = system: NCI-H520
Procedure, shortened: as §1

[14] = system: NCI-H3122
Procedure, shortened: as §1

[15] = system: SW 900
Procedure, shortened: as §1

[16] = system: LCLC-103H
Procedure, shortened: as §1

[17] = system: NCI-H1355
Procedure, shortened: as §1

[18] = system: NCI-H727
Procedure, shortened: as §1

[19] = system: NCI-H2347
Procedure, shortened: as §1

[20] = system: RERF-LC-KJ
Procedure, shortened: as §1

[21] = system: NCI-H522
Procedure, shortened: as §1

## COc1cc2nccc(Oc3ccc(NC(=O)Nc4cc(C)on4)c(Cl)c3)c2cc1OC [Tivozanib] + O=C(c1cc(Cc2n[nH]c(=O)c3ccccc23)ccc1F)N1CCN(C(=O)C2CC2)CC1 [Olaparib] (partner 8 µM)
[1]; first compound 0.005 µM
  relative viability: 0.835
[1]; first compound 0.01581 µM
  relative viability: 0.829
[1]; first compound 0.05 µM
  relative viability: 0.936
[1]; first compound 0.1581 µM
  relative viability: 0.773
[1]; first compound 0.5 µM
  relative viability: 0.784
[2]; first compound 0.005 µM
  relative viability: 0.28
[2]; first compound 0.01581 µM
  relative viability: 0.316
[2]; first compound 0.05 µM
  relative viability: 0.262
[2]; first compound 0.1581 µM
  relative viability: 0.376
[2]; first compound 0.5 µM
  relative viability: 0.306
[3]; first compound 0.005 µM
  relative viability: 0.661
[3]; first compound 0.01581 µM
  relative viability: 0.623
[3]; first compound 0.05 µM
  relative viability: 0.772
[3]; first compound 0.1581 µM
  relative viability: 0.62
[3]; first compound 0.5 µM
  relative viability: 0.583
[4]; first compound 0.005 µM
  relative viability: 0.703
[4]; first compound 0.01581 µM
  relative viability: 0.708
[4]; first compound 0.05 µM
  relative viability: 0.741
[4]; first compound 0.1581 µM
  relative viability: 0.77
[4]; first compound 0.5 µM
  relative viability: 0.699
[5]; first compound 0.005 µM
  relative viability: 0.538
[5]; first compound 0.01581 µM
  relative viability: 0.531
[5]; first compound 0.05 µM
  relative viability: 0.525
[5]; first compound 0.1581 µM
  relative viability: 0.432
[5]; first compound 0.5 µM
  relative viability: 0.396
[6]; first compound 0.005 µM
  relative viability: 0.313
[6]; first compound 0.01581 µM
  relative viability: 0.46
[6]; first compound 0.05 µM
  relative viability: 0.516
[6]; first compound 0.5 µM
  relative viability: 0.294
[7]; first compound 0.005 µM
  relative viability: 0.621
[7]; first compound 0.01581 µM
  relative viability: 0.696
[7]; first compound 0.05 µM
  relative viability: 0.773
[7]; first compound 0.5 µM
  relative viability: 0.706
[8]; first compound 0.005 µM
  relative viability: 0.984
[8]; first compound 0.01581 µM
  relative viability: 0.994
[8]; first compound 0.05 µM
  relative viability: 1.09
[8]; first compound 0.1581 µM
  relative viability: 1.13
[8]; first compound 0.5 µM
  relative viability: 0.99
[9]; first compound 0.005 µM
  relative viability: 0.255
[9]; first compound 0.01581 µM
  relative viability: 0.279
[9]; first compound 0.05 µM
  relative viability: 0.286
[9]; first compound 0.1581 µM
  relative viability: 0.291
[9]; first compound 0.5 µM
  relative viability: 0.206
[10]; first compound 0.005 µM
  relative viability: 0.656
[10]; first compound 0.01581 µM
  relative viability: 0.811
[10]; first compound 0.05 µM
  relative viability: 0.755
[10]; first compound 0.1581 µM
  relative viability: 0.72
[10]; first compound 0.5 µM
  relative viability: 0.714
[11]; first compound 0.005 µM
  relative viability: 0.377
[11]; first compound 0.01581 µM
  relative viability: 0.469
[11]; first compound 0.05 µM
  relative viability: 0.496
[11]; first compound 0.1581 µM
  relative viability: 0.393
[11]; first compound 0.5 µM
  relative viability: 0.356
[12]; first compound 0.005 µM
  relative viability: 0.187
[12]; first compound 0.01581 µM
  relative viability: 0.188
[12]; first compound 0.05 µM
  relative viability: 0.198
[12]; first compound 0.1581 µM
  relative viability: 0.203
[12]; first compound 0.5 µM
  relative viability: 0.158
[13]; first compound 0.005 µM
  relative viability: 0.42
[13]; first compound 0.01581 µM
  relative viability: 0.354
[13]; first compound 0.05 µM
  relative viability: 0.334
[13]; first compound 0.1581 µM
  relative viability: 0.315
[13]; first compound 0.5 µM
  relative viability: 0.301
[14]; first compound 0.005 µM
  relative viability: 0.616
[14]; first compound 0.01581 µM
  relative viability: 0.641
[14]; first compound 0.05 µM
  relative viability: 0.768
[14]; first compound 0.1581 µM
  relative viability: 0.684
[14]; first compound 0.5 µM
  relative viability: 0.606
[15]; first compound 0.005 µM
  relative viability: 0.779
[15]; first compound 0.01581 µM
  relative viability: 0.817
[15]; first compound 0.05 µM
  relative viability: 0.776
[15]; first compound 0.5 µM
  relative viability: 0.855
[16]; first compound 0.005 µM
  relative viability: 0.785
[16]; first compound 0.01581 µM
  relative viability: 0.783
[16]; first compound 0.05 µM
  relative viability: 0.734
[16]; first compound 0.1581 µM
  relative viability: 0.791
[16]; first compound 0.5 µM
  relative viability: 0.853
[17]; first compound 0.005 µM
  relative viability: 0.732
[17]; first compound 0.01581 µM
  relative viability: 0.755
[17]; first compound 0.05 µM
  relative viability: 0.765
[17]; first compound 0.1581 µM
  relative viability: 0.672
[17]; first compound 0.5 µM
  relative viability: 0.753
[18]; first compound 0.005 µM
  relative viability: 0.678
[18]; first compound 0.01581 µM
  relative viability: 0.787
[18]; first compound 0.05 µM
  relative viability: 0.823
[18]; first compound 0.1581 µM
  relative viability: 0.786
[18]; first compound 0.5 µM
  relative viability: 0.74
[19]; first compound 0.005 µM
  relative viability: 0.566
[19]; first compound 0.01581 µM
  relative viability: 0.65
[19]; first compound 0.05 µM
  relative viability: 0.608
[19]; first compound 0.1581 µM
  relative viability: 0.638
[19]; first compound 0.5 µM
  relative viability: 0.512
[20]; first compound 0.005 µM
  relative viability: 0.97
[20]; first compound 0.01581 µM
  relative viability: 0.954
[20]; first compound 0.05 µM
  relative viability: 0.974
[20]; first compound 0.1581 µM
  relative viability: 0.929
[20]; first compound 0.5 µM
  relative viability: 0.875
[21]; first compound 0.005 µM
  relative viability: 0.627
[21]; first compound 0.01581 µM
  relative viability: 0.635
[21]; first compound 0.05 µM
  relative viability: 0.651
[21]; first compound 0.1581 µM
  relative viability: 0.591
[21]; first compound 0.5 µM
  relative viability: 0.512
